From patent US6403808B1, “Selective 5-HT6 receptor ligands” (priority 2001, dated 2002) come the findings set out here.

In one assay the target is T1, human 5-HT6 (Homo sapiens, UniProt P50406).
T1 construct: expressed in transfected cells; host or cells: HEK 293
Description: biochemical. In kind it is binding.

The target of the next assay is T2, 5-HT3 receptors (Homo sapiens, UniProt P46098).
T2 sequence (P46098 24-478): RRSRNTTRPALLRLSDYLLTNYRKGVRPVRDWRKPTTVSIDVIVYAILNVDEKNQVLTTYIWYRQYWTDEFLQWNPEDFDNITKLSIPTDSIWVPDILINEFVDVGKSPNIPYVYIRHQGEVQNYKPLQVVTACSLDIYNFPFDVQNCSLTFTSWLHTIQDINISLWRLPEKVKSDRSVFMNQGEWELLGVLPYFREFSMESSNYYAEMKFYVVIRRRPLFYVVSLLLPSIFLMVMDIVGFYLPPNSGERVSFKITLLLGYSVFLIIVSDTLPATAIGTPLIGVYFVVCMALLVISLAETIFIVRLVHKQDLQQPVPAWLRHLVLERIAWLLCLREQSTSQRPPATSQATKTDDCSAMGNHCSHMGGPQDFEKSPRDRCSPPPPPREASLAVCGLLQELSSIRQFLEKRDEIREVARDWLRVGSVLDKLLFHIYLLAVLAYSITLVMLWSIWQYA
Description: Affinity at 5-HT3 receptors. The assay is classed as binding.

The next assay addresses T3, rD4 (Rattus norvegicus, UniProt P30729).
T3 sequence (P30729 1-387): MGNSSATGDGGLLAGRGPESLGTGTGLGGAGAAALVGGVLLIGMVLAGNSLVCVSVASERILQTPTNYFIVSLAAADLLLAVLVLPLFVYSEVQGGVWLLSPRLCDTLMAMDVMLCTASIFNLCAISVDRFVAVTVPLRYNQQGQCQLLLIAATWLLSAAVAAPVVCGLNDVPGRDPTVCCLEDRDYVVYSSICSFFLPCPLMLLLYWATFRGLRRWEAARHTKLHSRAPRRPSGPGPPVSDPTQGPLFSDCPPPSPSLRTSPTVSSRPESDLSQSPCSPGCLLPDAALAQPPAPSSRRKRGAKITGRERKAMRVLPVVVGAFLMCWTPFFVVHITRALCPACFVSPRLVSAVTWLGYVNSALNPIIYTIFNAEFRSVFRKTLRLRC
Description: NIMH PDSP selectivity binding, rD4. The text has this: (§1) . […] NET and SERT represent the norepinephrine and serotonin transporters.

The target of a further assay is rD3 (Rattus norvegicus, UniProt P19020). Description: NIMH PDSP selectivity binding, rD3.
Excerpt: as §1

A further assay concerns the target rD2 (Rattus norvegicus, UniProt P61169). Description: NIMH PDSP selectivity binding, rD2.
Excerpt: as §1

The target in another assay is hD5 (Homo sapiens, UniProt P21918). Description: NIMH PDSP selectivity binding, hD5.
Excerpt: as §1

A further assay concerns the target hD1 (Homo sapiens, UniProt P21728). Description: NIMH PDSP selectivity binding, hD1.
Excerpt: as §1

Assay [1] has as its target T4, Human 5-HT6 receptors stably expressed in 293 HEK cells (Homo sapiens, UniProt P50406).
T4 construct: expressed in transfected cells; host or cells: HEK 293
Description: cAMP activation assay (adenylate cyclase activity). The assay is classed as cell-based. Particulars: 5-HT6 receptor. The protocol: Human 5-HT6 receptors stably expressed in 293 HEK cells were grown in 24-well plates to near confluence and 18 h prior to the assay the medium was replaced with DMEM containing dialyzed 10% Fetal Calf Serum. For the assay, the medium was aspirated and replaced with fresh DMEM without serum and incubated with various concentrations of compounds of the invention in a total volume of 0.5 ml for 15 min. The assay was terminated by aspiration and the addition of 10% trichloroacetic acid (TCA). The TCA extract was used for cAMP determinations. (Data represent the mean of N=4 separate determinations). Results of cAMP activation by various compounds of the invention are shown in the attached Drawing of FIG. 1.

Where a name gives a salt, the structure may show the parent alone. Read-outs that look alike come from different tables or passages of the source. Where only a bound is given, the exact number is not on record here.

hD1, sequence (P21728 whole entry): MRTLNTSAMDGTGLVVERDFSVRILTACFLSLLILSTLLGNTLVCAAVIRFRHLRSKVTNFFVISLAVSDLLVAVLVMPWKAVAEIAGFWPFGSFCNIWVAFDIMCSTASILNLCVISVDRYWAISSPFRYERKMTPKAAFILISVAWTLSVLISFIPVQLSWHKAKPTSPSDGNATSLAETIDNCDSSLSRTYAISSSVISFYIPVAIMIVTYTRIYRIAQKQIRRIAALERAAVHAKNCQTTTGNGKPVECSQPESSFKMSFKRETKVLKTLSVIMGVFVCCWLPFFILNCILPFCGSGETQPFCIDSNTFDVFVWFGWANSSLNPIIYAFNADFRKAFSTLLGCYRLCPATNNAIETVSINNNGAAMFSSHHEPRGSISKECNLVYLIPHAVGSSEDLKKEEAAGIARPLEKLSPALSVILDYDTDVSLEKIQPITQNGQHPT
T1 sequence (P50406 whole entry): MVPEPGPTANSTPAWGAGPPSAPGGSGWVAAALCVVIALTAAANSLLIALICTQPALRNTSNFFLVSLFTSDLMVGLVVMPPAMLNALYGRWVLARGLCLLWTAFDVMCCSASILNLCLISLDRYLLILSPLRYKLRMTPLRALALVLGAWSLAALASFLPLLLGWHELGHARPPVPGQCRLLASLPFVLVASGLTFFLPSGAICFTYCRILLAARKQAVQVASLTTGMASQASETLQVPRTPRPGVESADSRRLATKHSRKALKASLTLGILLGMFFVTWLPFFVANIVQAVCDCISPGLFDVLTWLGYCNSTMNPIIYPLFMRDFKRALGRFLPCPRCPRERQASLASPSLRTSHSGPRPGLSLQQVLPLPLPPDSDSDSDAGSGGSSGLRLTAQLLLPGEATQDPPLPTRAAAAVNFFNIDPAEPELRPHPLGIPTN
rD2, sequence (P61169 whole entry): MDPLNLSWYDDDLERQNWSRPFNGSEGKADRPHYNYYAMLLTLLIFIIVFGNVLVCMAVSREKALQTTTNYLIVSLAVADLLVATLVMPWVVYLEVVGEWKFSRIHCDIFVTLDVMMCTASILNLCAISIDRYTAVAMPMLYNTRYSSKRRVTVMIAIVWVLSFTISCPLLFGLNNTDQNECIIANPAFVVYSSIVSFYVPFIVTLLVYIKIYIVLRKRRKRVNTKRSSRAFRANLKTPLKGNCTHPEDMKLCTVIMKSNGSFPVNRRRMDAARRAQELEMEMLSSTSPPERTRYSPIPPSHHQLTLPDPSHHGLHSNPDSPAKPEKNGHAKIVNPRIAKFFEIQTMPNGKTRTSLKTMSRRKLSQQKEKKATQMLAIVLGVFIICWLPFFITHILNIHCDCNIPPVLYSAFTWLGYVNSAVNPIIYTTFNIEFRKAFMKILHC
rD3, sequence (P19020 whole entry): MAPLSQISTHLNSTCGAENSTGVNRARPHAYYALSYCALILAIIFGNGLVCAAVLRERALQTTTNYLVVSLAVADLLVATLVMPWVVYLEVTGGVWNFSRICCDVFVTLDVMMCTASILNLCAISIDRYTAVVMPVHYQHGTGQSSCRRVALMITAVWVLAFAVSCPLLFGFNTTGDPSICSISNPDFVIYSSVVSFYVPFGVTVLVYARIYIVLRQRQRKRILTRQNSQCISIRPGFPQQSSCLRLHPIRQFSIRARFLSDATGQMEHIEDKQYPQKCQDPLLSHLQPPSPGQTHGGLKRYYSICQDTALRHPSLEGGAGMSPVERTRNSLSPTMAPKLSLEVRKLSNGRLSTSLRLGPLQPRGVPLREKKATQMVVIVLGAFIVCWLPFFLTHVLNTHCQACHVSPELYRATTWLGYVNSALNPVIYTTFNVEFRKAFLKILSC
hD5, sequence (P21918 whole entry): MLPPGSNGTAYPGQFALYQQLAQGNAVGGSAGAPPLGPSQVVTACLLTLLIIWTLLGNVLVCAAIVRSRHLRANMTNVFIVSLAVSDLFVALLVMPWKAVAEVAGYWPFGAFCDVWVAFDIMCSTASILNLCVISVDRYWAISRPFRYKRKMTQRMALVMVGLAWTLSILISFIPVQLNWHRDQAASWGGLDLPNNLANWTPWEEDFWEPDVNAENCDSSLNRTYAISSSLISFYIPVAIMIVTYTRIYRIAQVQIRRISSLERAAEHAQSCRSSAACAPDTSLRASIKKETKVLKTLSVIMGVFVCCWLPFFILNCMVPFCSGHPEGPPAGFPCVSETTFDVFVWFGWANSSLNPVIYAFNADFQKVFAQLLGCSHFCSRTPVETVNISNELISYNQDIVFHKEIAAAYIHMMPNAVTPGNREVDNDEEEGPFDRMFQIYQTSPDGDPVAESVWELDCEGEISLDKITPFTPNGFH
T4 sequence (P50406 whole entry): as the sequence (P50406 whole entry) above

Consider `Cc1[nH]c2ccccc2c1CCN(C)C` [2-methyl-N,N-dimethyltryptamine], for which, on human 5-HT6 (read-out: affinity for the 5-HT6 receptor, Ki), the Ki (usually a measure of affinity in units of concentration, obtained from inhibition or displacement) worked out at 0.308 µM.
For `Cc1[nH]c2ccc(O)cc2c1CCN` [2-methyl-5-HT, reference compound], the “affinity for the 5-HT6 receptor (in words)” value at human 5-HT6 was “high affinity”; on human 5-HT6 (listed as 2-methyly-5-HT), “affinity equivalent to that of the parent compound”. The “greater affinity at 5-HT6 than at 5-HT3 receptors” value at 5-HT3 receptors (5-HT6 over 5-HT3) is given as 20 fold.
As to `CCc1[nH]c2ccc(OC)cc2c1CCN(C)C` [Compound B, 2-ethyl-5-methoxy-N,N-dimethyltryptamine maleate], the Ki on rD4, on rD3, at rD2, on hD5 and at hD1 was over 10 µM throughout.
As for `COc1ccc2[nH]c(C)c(CCN)c2c1` [5-methoxy-2-methyltryptamine, reference compound], at human 5-HT6, the “affinity for the 5-HT6 receptor (in words)” value is “affinity comparable to 2-methyl-5-HT”. For the same compound, the “affinity for 5-HT3 receptors (in words)” value on 5-HT3 receptors is “lacks affinity”.
With `COc1ccc2c(c1)c(CCN(C)C)c1n2CCCC1=O` [I, 6,7,8,9-tetrahydro-2-methoxy-10-(N,N-dimethylaminoethyl)pyridol[1,2-a]indole-9-one Oxalate], at human 5-HT6 (human 5-HT6 in HEK 293, [3H]LSD, third table, read-out: Ki), the Ki came to 0.084 µM.
On to `COc1ccc2[nH]c(C)c(CCN(C)C)c2c1` [Compound A, 2-methyl-5-methoxy-N,N-dimethyltryptamine], for which the Ki at rD4, at rD3, at rD2, on hD5 and at hD1 was over 10 µM each time.
As for `COc1ccc2[nH]c(-c3ccccc3)c(CCN)c2c1` [5-methoxy-2-phenylotryptamine], the “affinity for the 5-HT6 receptor (in words)” value on human 5-HT6 is “high affinity”. Moreover, in assay [1], the “effect on adenylate cyclase activity (in words)” value is given as “antagonist to 5-HT stimulated adenylate cyclase activity”.
For the compound `COc1ccc2[nH]c(-c3ccccc3)c(CCN(C)C)c2c1` [Compound D, 5-methoxy-2-phenyl-N,N-dimethyltryptamine oxalate], the Ki on rD4 (rD4, read-out: Ki) was at least 10 µM; on rD2 (rD2, read-out: Ki), at least 10 µM; on hD1 (hD1, read-out: Ki), at least 10 µM.
